Assays:
[1] = tested on: female volunteers in the period of ovarian activity; experiment: Randomized double-blind study of the anti-ovulatory action of the oestradiol/nomegestrol acetate combination in 38 female volunteers; type: in vivo, women; conditions: day 1-21, m ± sem
Description: The anti-ovulatory action of the oestradiol/nomegestrol acetate combination was evaluated in a randomized double-blind study on 38 female volunteers, in good health, aged 18 to 35, in the period of ovarian activity, for whom it was checked beforehand, by means of an assay of the progesterone in the plasma and the establishment of a temperature curve, that they had ovulatory menstrual cycles.
The women were monitored for two consecutive cycles: the first was a control cycle without treatment; during the following cycle (cycle under treatment), they received a hormonal treatment administered orally daily from the 1st to the 21st day of the cycle.
According to the randomization: • 9 women received 1.5 mg of oestradiol+0.625 mg of nomegestrol acetate (group A), • 10 others received 1.5 mg of oestradiol+1.25 mg of nomegestrol acetate (group B), • another 10 received 1.5 mg of oestradiol+2.5 mg of nomegestrol acetate (group C), • and the other 9 were treated with nomegestrol acetate alone at a dose of.2.5 mg (group D).
During the control cycle, the hormonal parameters were not significantively different among the four groups. Table I indicates the mean concentrations observed for each hormonal parameter in the course of the 21 days of treatment.

women = experiment: Another clinical trial, same methodology, with the progestative agent alone; type: in vivo; conditions: NOMAC 1.25 mg alone (n=3), treated cycle
Description: This synergistic effect of oestradiol is confirmed by comparing the results of this study with those of another clinical trial performed according to the same methodology, but with the progestative agent alone. […] On the other hand, the addition of oestradiol lowers the plasmatic levels of oestradiol, assayed 24 hours after taking the medicinal product, by about […]; this parameter is a good reflection of the endogenous secretion of the ovaries (Table II).

endometrium = experiment: Clinical trial similar to the Kaufmann's trial (endometrial conversion); type: in vivo, women
Text: (§1) The ratio of the ovulation-inhibiting activity in women (in mg/day) to the endometrial luteinizing |activity (in mg/cycle) as defined by Neumann (1977) is thus in the order of 0.2, i.e. close to those of cyproterone acetate and chlormadinone acetate; this indicates a strong central activity (Oettel et al., 1999). In this sense, it clearly differs from dienogest, whose activity is disequilibrated to the benefit of the peripheral activity.

ovulation [2] = experiment: Inhibition of ovulation in women (literature data); type: in vivo; conditions: as defined by Neumann (1977)
Description: The oestrogenic component involves oestradiol or an ester or an ether thereof, such as, for example, the valerate, benzoate, enanthate, etc., the doses used being calculated as oestradiol equivalents. The doses range from 0.3 mg to 3 mg per day with a preference for a range from 0.5 mg to 2 mg per day. According to the literature data (Hirvonen, 1995), a dose of 4 mg is needed to ensure the inhibition of ovulation, but they correspond to the doses used to compensate for hypooestrogenic states. For example, in menopausal women, the dose recommended to compensate for hypooestrogenic states is about 1.5 mg.
as §1

ovulation [3] = conditions: cited from earlier work

Compound | LH mean concentration in the plasma ([1]; Group D (n=9): 2.5 mg NOMAC alone oral daily) | FSH mean concentration in the plasma ([1]; Group D: 2.5 mg NOMAC alone) | Oestradiol mean concentration in the plasma ([1]; Group D: 2.5 mg NOMAC alone) | Progesterone mean concentration in the plasma ([1]; Group D: 2.5 mg NOMAC alone) | FSH mean concentration in the plasma (women) | LH mean concentration in the plasma (women) | Oestradiol mean concentration in the plasma (women) | Daily dose giving endometrial conversion (endometrium; daily dose) | Dose for the entire cycle giving endometrial conversion (endometrium; entire cycle) | Ratio of ovulation-inhibiting activity (mg/day) to endometrial luteinizing activity (mg/cycle) (ovulation [2]) | Effect on ovulation (ovulation [3]; given alone at 1.25 mg per day, oestradiol level in plasma increases) | Daily dose giving inhibition of ovulation and of follicle development in women (ovulation [3]; nomegestrol acetate alone, Bazin et al., 1987) | Dose needed to ensure the inhibition of ovulation (ovulation [3]; oestradiol alone, Hirvonen, 1995)
CC(=O)O[C@]1(C(C)=O)CC[C@H]2[C@@H]3C=C(C)C4=CC(=O)CC[C@@H]4[C@H]3CC[C@@]21C [NOMAC, nomegestrol acetate] | 5.6 ± 0.62 mIU/ml | 7.6 ± 0.28 mIU/ml | 31.9 ± 3.91 pg/mL | 0.07 ± 0.014 ng/mL | 3.3 mIU/ml | 3.1 mIU/ml | 158.8 pg/mL | 1 mg | 10 mg | ~0.2 | abolishes ovulation | 2.5 mg | –
C[C@]12CC[C@@H]3c4ccc(O)cc4CC[C@H]3[C@@H]1CC[C@@H]2O [oestradiol, 17beta-oestradiol] | – | – | – | – | – | – | – | – | – | – | – | – | 4 mg

Source: patent US6906049B1, “Contraceptive medicine based on a progestational agent and an oestrogen and preparation method” (Laboratoire Theramex, priority 1996, dated 2005)
